Reference: the supplement of paper PMC11451515

Key:
Conditions in all cases: 48 h
[1] = test system: P12-Ichikawa; assay: AUC of viability dose-response curve (% viability x log10 dose units); higher = less sensitive
Procedure, shortened: (§1)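 Area under the curve was integrated by trapezoidal rule from a log-logistic fit of normalised viability, with curves exceeding full viability scaled and quality-control failures removed. The fit had four parameters over log10 doses. Viability came from CellTiter-Glo One luminescence, normalised per plate to DMSO and cell-free wells, after leukemia cells adapted to each medium (500 or 1000 cells/well, 1536-well plates) were exposed to library compounds in DMSO for 48 h at 37°C. The 11 threefold doses ran from 47 μM to 0.79 nM.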

[2] = test system: NOMO1; assay: as above
Procedure, shortened: as §1

[3] = test system: SEM cells; assay: as above
Procedure, shortened: as §1

[4] = test system: P12-Ichikawa; assay: cell viability relative to DMSO control; higher = less cytotoxic
Procedure, shortened: (§2)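 NOMO1 or SEM cells were plated at 500 cells/well and P12-Ichikawa cells at 1000 cells/well in 1536-well plates (5 μl), after each leukemia line had been adapted for at least four passages in each medium. Pin dosing delivered library compounds in DMSO at 11 threefold concentrations, 47 μM to 0.79 nM. CellTiter-Glo One luminescence was read after 48 h at 37°C. Viability is reported as a per-plate percentage of DMSO wells, with cell-free wells as background.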

[5] = test system: NOMO1; assay: as above
Procedure, shortened: as §2

[6] = test system: SEM cells; assay: as above
Procedure, shortened: as §2

C[C@@H](NC(=O)c1ncnc(N)c1Cl)c1ncc(C(=O)Nc2cc(C(F)(F)F)c(Cl)cn2)s1
AUC of viability dose-response curve
Conditions | [1] | [2] | [3]
HPLM + 10% dialyzed FBS | 461 | 451 | 470
RPMI 5 mM glucose + 10% FBS | 449 | 460 | 467
RPMI 5 mM glucose + 10% dialyzed FBS | 448 | 453 | 467

Conditions | cell viability [%]
[4], HPLM + 10% dialyzed FBS, 0.000781 µM | 124
[4], HPLM + 10% dialyzed FBS, 0.00234 µM | 119
[4], HPLM + 10% dialyzed FBS, 0.00702 µM | 121
[4], HPLM + 10% dialyzed FBS, 0.0211 µM | 123
[4], HPLM + 10% dialyzed FBS, 0.0632 µM | 120
[4], HPLM + 10% dialyzed FBS, 0.19 µM | 122
[4], HPLM + 10% dialyzed FBS, 0.569 µM | 116
[4], HPLM + 10% dialyzed FBS, 1.71 µM | 115
[4], HPLM + 10% dialyzed FBS, 5.12 µM | 116
[4], HPLM + 10% dialyzed FBS, 15.4 µM | 104
[4], HPLM + 10% dialyzed FBS, 46.1 µM | 92.7
[5], RPMI 5 mM glucose + 10% FBS, 0.000781 µM | 99.4
[5], RPMI 5 mM glucose + 10% FBS, 0.00234 µM | 124
[5], RPMI 5 mM glucose + 10% FBS, 0.00702 µM | 124
[5], RPMI 5 mM glucose + 10% FBS, 0.0211 µM | 121
[5], RPMI 5 mM glucose + 10% FBS, 0.0632 µM | 125
[5], RPMI 5 mM glucose + 10% FBS, 0.19 µM | 122
[5], RPMI 5 mM glucose + 10% FBS, 0.569 µM | 138
[5], RPMI 5 mM glucose + 10% FBS, 1.71 µM | 127
[5], RPMI 5 mM glucose + 10% FBS, 5.12 µM | 114
[5], RPMI 5 mM glucose + 10% FBS, 15.4 µM | 103
[5], RPMI 5 mM glucose + 10% FBS, 46.1 µM | 88.3
[6], RPMI 5 mM glucose + 10% FBS, 0.000781 µM | 113
[6], RPMI 5 mM glucose + 10% FBS, 0.00234 µM | 119
[6], RPMI 5 mM glucose + 10% FBS, 0.00702 µM | 105
[6], RPMI 5 mM glucose + 10% FBS, 0.0211 µM | 127
[6], RPMI 5 mM glucose + 10% FBS, 0.0632 µM | 125
[6], RPMI 5 mM glucose + 10% FBS, 0.19 µM | 126
[6], RPMI 5 mM glucose + 10% FBS, 0.569 µM | 127
[6], RPMI 5 mM glucose + 10% FBS, 1.71 µM | 121
[6], RPMI 5 mM glucose + 10% FBS, 5.12 µM | 121
[6], RPMI 5 mM glucose + 10% FBS, 15.4 µM | 112
[6], RPMI 5 mM glucose + 10% FBS, 46.1 µM | 106
[6], RPMI 5 mM glucose + 10% dialyzed FBS, 0.000781 µM | 123
[6], RPMI 5 mM glucose + 10% dialyzed FBS, 0.00234 µM | 128
[6], RPMI 5 mM glucose + 10% dialyzed FBS, 0.00702 µM | 112
[6], RPMI 5 mM glucose + 10% dialyzed FBS, 0.0211 µM | 126
[6], RPMI 5 mM glucose + 10% dialyzed FBS, 0.0632 µM | 139
[6], RPMI 5 mM glucose + 10% dialyzed FBS, 0.19 µM | 134
[6], RPMI 5 mM glucose + 10% dialyzed FBS, 0.569 µM | 135
[6], RPMI 5 mM glucose + 10% dialyzed FBS, 1.71 µM | 137
[6], RPMI 5 mM glucose + 10% dialyzed FBS, 5.12 µM | 131
[6], RPMI 5 mM glucose + 10% dialyzed FBS, 15.4 µM | 119
[6], RPMI 5 mM glucose + 10% dialyzed FBS, 46.1 µM | 96.2

N[S+](=O)([O-])c1cccc2c1C(=O)c1cccc(O)c1C2=O
AUC of viability dose-response curve
Conditions | [1] | [2] | [3]
HPLM + 10% dialyzed FBS | 439 | 434 | 343
RPMI 5 mM glucose + 10% FBS | 451 | 452 | 295
RPMI 5 mM glucose + 10% dialyzed FBS | 447 | 443 | 278

cell viability [%]
Conditions | [4] | [5] | [6]
HPLM + 10% dialyzed FBS, 0.000781 µM | 108 | 105 | 84.4
HPLM + 10% dialyzed FBS, 0.00234 µM | 106 | 115 | 95.8
HPLM + 10% dialyzed FBS, 0.00702 µM | 115 | 112 | 98.9
HPLM + 10% dialyzed FBS, 0.0211 µM | 111 | 105 | 84.2
HPLM + 10% dialyzed FBS, 0.0632 µM | 121 | 119 | 91.8
HPLM + 10% dialyzed FBS, 0.19 µM | 114 | 106 | 91.5
HPLM + 10% dialyzed FBS, 0.569 µM | 114 | 107 | 61.6
HPLM + 10% dialyzed FBS, 1.71 µM | 118 | 85 | 59.9
HPLM + 10% dialyzed FBS, 5.12 µM | 105 | 91.6 | 53.7
HPLM + 10% dialyzed FBS, 15.4 µM | 80.9 | 78.7 | 44.1
HPLM + 10% dialyzed FBS, 46.1 µM | 4.7 | 4.98 | 3.56
RPMI 5 mM glucose + 10% FBS, 0.000781 µM | 102 | 110 | 95.8
RPMI 5 mM glucose + 10% FBS, 0.00234 µM | 105 | 101 | 96.3
RPMI 5 mM glucose + 10% FBS, 0.00702 µM | 108 | 103 | 102
RPMI 5 mM glucose + 10% FBS, 0.0211 µM | 112 | 98.5 | 68.9
RPMI 5 mM glucose + 10% FBS, 0.0632 µM | 116 | 115 | 94.7
RPMI 5 mM glucose + 10% FBS, 0.19 µM | 123 | 107 | 83.2
RPMI 5 mM glucose + 10% FBS, 0.569 µM | 106 | 91.9 | 51.1
RPMI 5 mM glucose + 10% FBS, 1.71 µM | 111 | 94.9 | 44.2
RPMI 5 mM glucose + 10% FBS, 5.12 µM | 96.7 | 88.2 | 21.9
RPMI 5 mM glucose + 10% FBS, 15.4 µM | 102 | 97.1 | 4.54
RPMI 5 mM glucose + 10% FBS, 46.1 µM | 3.97 | 3.99 | 3.13
RPMI 5 mM glucose + 10% dialyzed FBS, 0.000781 µM | 98.9 | 97.6 | 89.4
RPMI 5 mM glucose + 10% dialyzed FBS, 0.00234 µM | 95.8 | 104 | 102
RPMI 5 mM glucose + 10% dialyzed FBS, 0.00702 µM | 110 | 97.3 | 96.1
RPMI 5 mM glucose + 10% dialyzed FBS, 0.0211 µM | 106 | 103 | 62.1
RPMI 5 mM glucose + 10% dialyzed FBS, 0.0632 µM | 113 | 102 | 95.1
RPMI 5 mM glucose + 10% dialyzed FBS, 0.19 µM | 121 | 107 | 70
RPMI 5 mM glucose + 10% dialyzed FBS, 0.569 µM | 104 | 108 | 40.8
RPMI 5 mM glucose + 10% dialyzed FBS, 1.71 µM | 112 | 94.9 | 33.3
RPMI 5 mM glucose + 10% dialyzed FBS, 5.12 µM | 94.3 | 94.3 | 18.3
RPMI 5 mM glucose + 10% dialyzed FBS, 15.4 µM | 92.8 | 82.9 | 24.5
RPMI 5 mM glucose + 10% dialyzed FBS, 46.1 µM | 3.3 | 4.93 | 3.78

Oc1cccc(-c2nc(N3CCOCC3)c3oc4ncccc4c3n2)c1
AUC of viability dose-response curve
Conditions | [1] | [2] | [3]
HPLM + 10% dialyzed FBS | 449 | 464 | 337
RPMI 5 mM glucose + 10% FBS | 401 | 466 | 302
RPMI 5 mM glucose + 10% dialyzed FBS | 430 | 459 | 312

cell viability [%]
Conditions | [4] | [5] | [6]
HPLM + 10% dialyzed FBS, 0.000781 µM | 118 | 121 | 108
HPLM + 10% dialyzed FBS, 0.00234 µM | 119 | 92.1 | 96.3
HPLM + 10% dialyzed FBS, 0.00702 µM | 123 | 117 | 102
HPLM + 10% dialyzed FBS, 0.0211 µM | 123 | 91.8 | 99.1
HPLM + 10% dialyzed FBS, 0.0632 µM | 117 | 92.3 | 92.6
HPLM + 10% dialyzed FBS, 0.19 µM | 121 | 107 | 80.7
HPLM + 10% dialyzed FBS, 0.569 µM | 131 | 115 | 54.8
HPLM + 10% dialyzed FBS, 1.71 µM | 118 | 102 | 54.5
HPLM + 10% dialyzed FBS, 5.12 µM | 116 | 129 | 61.5
HPLM + 10% dialyzed FBS, 15.4 µM | 79.2 | 96.4 | 57.3
HPLM + 10% dialyzed FBS, 46.1 µM | 73.3 | 103 | 5.23
RPMI 5 mM glucose + 10% FBS, 0.000781 µM | 122 | 109 | 102
RPMI 5 mM glucose + 10% FBS, 0.00234 µM | 114 | 113 | 102
RPMI 5 mM glucose + 10% FBS, 0.00702 µM | 132 | 116 | 120
RPMI 5 mM glucose + 10% FBS, 0.0211 µM | 129 | 123 | 106
RPMI 5 mM glucose + 10% FBS, 0.0632 µM | 110 | 112 | 93.3
RPMI 5 mM glucose + 10% FBS, 0.19 µM | 102 | 108 | 77.9
RPMI 5 mM glucose + 10% FBS, 0.569 µM | 80.8 | 104 | 58.4
RPMI 5 mM glucose + 10% FBS, 1.71 µM | 79 | 87.4 | 60.9
RPMI 5 mM glucose + 10% FBS, 5.12 µM | 108 | 128 | 8.23
RPMI 5 mM glucose + 10% FBS, 15.4 µM | 94.6 | 124 | 6.63
RPMI 5 mM glucose + 10% FBS, 46.1 µM | 75.3 | 122 | 4.34
RPMI 5 mM glucose + 10% dialyzed FBS, 0.000781 µM | 121 | 120 | –
RPMI 5 mM glucose + 10% dialyzed FBS, 0.00234 µM | 123 | 106 | –
RPMI 5 mM glucose + 10% dialyzed FBS, 0.00702 µM | 119 | 125 | –
RPMI 5 mM glucose + 10% dialyzed FBS, 0.0211 µM | 126 | 98.9 | –
RPMI 5 mM glucose + 10% dialyzed FBS, 0.0632 µM | 113 | 110 | –
RPMI 5 mM glucose + 10% dialyzed FBS, 0.19 µM | 110 | 102 | –
RPMI 5 mM glucose + 10% dialyzed FBS, 0.569 µM | 98.4 | 80.4 | –
RPMI 5 mM glucose + 10% dialyzed FBS, 1.71 µM | 81.5 | 77.7 | –
RPMI 5 mM glucose + 10% dialyzed FBS, 5.12 µM | 114 | 109 | –
RPMI 5 mM glucose + 10% dialyzed FBS, 15.4 µM | 108 | 106 | –
RPMI 5 mM glucose + 10% dialyzed FBS, 46.1 µM | 95.7 | 126 | –
